Test results as given in PubChem BioAssay AID330 (DTP/NCI, 2004).
Where “and” joins values, the source holds several entries; their conditions need not be identical. Equal values may be shown once. Inconclusive results and toxic doses are left out. Rule for the calls: active = survival T/C of 150% or more; inactive = T/C below 125% in these data.

Tested on: P388 leukemia ip, CD2F1 mice, survival T/C
Test: NCI In Vivo Anticancer Drug Screen. Data for tumor model P388 Leukemia (intraperitoneal) in CD2F1 (CDF1) mice
Conditions: endpoint: median survival time, higher = longer survival
How it was run: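 Mice carrying the transplanted tumor received test compound or vehicle. Survival was recorded in each group, and the value is the treated-group measurement divided by that of the vehicle-treated control group.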

[1] = dose: 50.0 mg/kg/injection, schedule: Q01DX009 (ip), vehicle: saline
[2] = dose: 100.0 mg/kg/injection, schedule: Q01DX009 (ip), vehicle: saline
[3] = dose: 200.0 mg/kg/injection, schedule: Q01DX009 (ip), vehicle: saline
[4] = dose: 25.0 mg/kg/injection, schedule: Q01DX009 (ip), vehicle: saline

Measured: T/C

CN(/N=C/c1ccccc1O)C(=O)Nc1cc(C(F)(F)F)ccc1Cl
inactive: dose: 25.0 mg/kg/injection, schedule: Q01DX005 (ip), vehicle: saline with Tween-80 100 % of control | dose: 50.0 mg/kg/injection, schedule: Q01DX005 (ip), vehicle: saline with Tween-80 100 % of control and 102 % of control | dose: 100.0 mg/kg/injection, schedule: Q01DX005 (ip), vehicle: saline with Tween-80 94 % of control and 96 % of control | dose: 200.0 mg/kg/injection, schedule: Q01DX005 (ip), vehicle: saline with Tween-80 91 % of control and 94 % of control

CC1=C(O)C(=O)C=C2C1=CC=C1[C@@]2(C)CC[C@@]2(C)[C@@H]3C[C@](C)(C(=O)O)CC[C@]3(C)CC[C@]12C
inactive: dose: 0.19 mg/kg/injection, schedule: Q01DX009 (ip), vehicle: saline 101 % of control | dose: 0.39 mg/kg/injection, schedule: Q01DX009 (ip), vehicle: saline 101 % of control | dose: 0.78 mg/kg/injection, schedule: Q01DX009 (ip), vehicle: saline 97 % of control | dose: 1.56 mg/kg/injection, schedule: Q01DX009 (ip), vehicle: saline 87 % of control | dose: 3.12 mg/kg/injection, schedule: Q01DX009 (ip), vehicle: suspension in saline 91 % of control

COc1ccc(-c2nc3ccccc3[nH]2)cc1
inactive: dose: 50.0 mg/kg/injection, schedule: Q04DX003 (ip), vehicle: saline with Tween-80 103 % of control | dose: 100.0 mg/kg/injection, schedule: Q04DX003 (ip), vehicle: saline with Tween-80 106 % of control | dose: 200.0 mg/kg/injection, schedule: Q04DX003 (ip), vehicle: saline with Tween-80 102 % of control | dose: 400.0 mg/kg/injection, schedule: Q04DX003 (ip), vehicle: saline with Tween-80 120 % of control

CC1CCC2(C)C(CC(O)[C@H](O)C2(C)O)C1(C)CCc1ccoc1 (some centres not stated)
inactive: dose: 3.5 mg/kg/injection, schedule: Q01DX005 (ip), vehicle: Klucel (hydroxypropylcellulose) (HPC) 108 % of control | dose: 7.0 mg/kg/injection, schedule: Q01DX005 (ip), vehicle: Klucel (hydroxypropylcellulose) (HPC) 103 % of control | dose: 14.0 mg/kg/injection, schedule: Q01DX005 (ip), vehicle: Klucel (hydroxypropylcellulose) (HPC) 106 % of control | dose: 25.0 mg/kg/injection, schedule: Q01DX005 (ip), vehicle: Klucel (hydroxypropylcellulose) (HPC) 101 % of control | dose: 28.0 mg/kg/injection, schedule: Q01DX005 (ip), vehicle: Klucel (hydroxypropylcellulose) (HPC) 104 % of control | dose: 50.0 mg/kg/injection, schedule: Q01DX005 (ip), vehicle: Klucel (hydroxypropylcellulose) (HPC) 92 % of control | dose: 100.0 mg/kg/injection, schedule: Q01DX005 (ip), vehicle: Klucel (hydroxypropylcellulose) (HPC) 97 % of control

COC1=C/C(=C\C=C\c2ccccc2)C(OC)=CC1=O
inactive: dose: 2.5 mg/kg/injection, schedule: Q01DX009 (ip), vehicle: saline with Tween-80 102 % of control | dose: 5.0 mg/kg/injection, schedule: Q01DX009 (ip), vehicle: saline with Tween-80 104 % of control | dose: 10.0 mg/kg/injection, schedule: Q01DX009 (ip), vehicle: saline with Tween-80 108 % of control

O=[N+]([O-])[O-].OCCNCCNCC[OH2+].OCCNCCNCC[OH2+].[Co+2]
inactive: [1] 95 % of control | [2] 104 % of control | [3] 103 % of control

COc1ccc(/C=C/c2ccnnc2)c(OC)c1OC
inactive: [4] 102 % of control | [1] 102 % of control | [2] 105 % of control

CC12CCC(Cl)CC1=CCC1C2CCC2(C)C1CCCN2CCCl (configuration not stated)
inactive: dose: 6.25 mg/kg/injection, schedule: Q01DX001 (ip), vehicle: saline 99 % of control | dose: 12.5 mg/kg/injection, schedule: Q01DX001 (ip), vehicle: saline 98 % of control | dose: 25.0 mg/kg/injection, schedule: Q01DX001 (ip), vehicle: saline with Tween-80 109 % of control | dose: 25.0 mg/kg/injection, schedule: Q01DX001 (ip), vehicle: saline 98 % of control and 104 % of control

COCCOC(=O)C1=C(O)c2ccccc2S(=O)(=O)N1C
inactive: dose: 60.0 mg/kg/injection, schedule: Q01DX005 (ip), vehicle: Klucel (hydroxypropylcellulose) (HPC) 106 % of control | dose: 120.0 mg/kg/injection, schedule: Q01DX005 (ip), vehicle: Klucel (hydroxypropylcellulose) (HPC) 109 % of control | dose: 240.0 mg/kg/injection, schedule: Q01DX005 (ip), vehicle: Klucel (hydroxypropylcellulose) (HPC) 120 % of control

CC1OC(OC2C(O)C(OCCc3ccc(O)c(O)c3)OC(CO)C2OC(=O)/C=C/c2ccc(O)c(O)c2)C(O)C(O)C1O (configuration not stated)
inactive: dose: 4.75 mg/kg/injection, schedule: Q01DX005 (ip), vehicle: Klucel (hydroxypropylcellulose) (HPC) 106 % of control | dose: 9.5 mg/kg/injection, schedule: Q01DX005 (ip), vehicle: Klucel (hydroxypropylcellulose) (HPC) 100 % of control | dose: 19.0 mg/kg/injection, schedule: Q01DX005 (ip), vehicle: Klucel (hydroxypropylcellulose) (HPC) 100 % of control | dose: 38.0 mg/kg/injection, schedule: Q01DX005 (ip), vehicle: Klucel (hydroxypropylcellulose) (HPC) 100 % of control

NC(=O)CCNC(=O)CCCNC(=O)CCNC(=O)OCc1ccccc1
inactive: dose: 12.5 mg/kg/injection, schedule: Q01DX009 (ip), vehicle: distilled water + Tween-80 96 % of control | dose: 25.0 mg/kg/injection, schedule: Q01DX009 (ip), vehicle: distilled water + Tween-80 110 % of control | dose: 50.0 mg/kg/injection, schedule: Q01DX009 (ip), vehicle: distilled water + Tween-80 97 % of control | dose: 100.0 mg/kg/injection, schedule: Q01DX009 (ip), vehicle: distilled water + Tween-80 105 % of control | dose: 200.0 mg/kg/injection, schedule: Q01DX009 (ip), vehicle: distilled water + Tween-80 96 % of control

CC1(C)CC2(Nc3ccccc3N2)C2=C(O1)C(=O)OC2
inactive: dose: 60.0 mg/kg/injection, schedule: Q01DX005 (ip), vehicle: saline with Tween-80 101 % of control | dose: 120.0 mg/kg/injection, schedule: Q01DX005 (ip), vehicle: saline with Tween-80 103 % of control | dose: 240.0 mg/kg/injection, schedule: Q01DX005 (ip), vehicle: saline with Tween-80 92 % of control

O=Nc1[nH]c(NO)c2ccccc12
inactive: dose: 50.0 mg/kg/injection, schedule: Q01DX009 (ip), vehicle: saline with Tween-80 91 % of control | dose: 100.0 mg/kg/injection, schedule: Q01DX009 (ip), vehicle: saline with Tween-80 87 % of control | dose: 200.0 mg/kg/injection, schedule: Q01DX009 (ip), vehicle: saline with Tween-80 87 % of control | dose: 400.0 mg/kg/injection, schedule: Q01DX009 (ip), vehicle: saline with Tween-80 90 % of control

CC(C)CSc1nc2ccc(NC(=O)/C=C/C(=O)O)cc2s1
inactive: dose: 50.0 mg/kg/injection, schedule: Q01DX009 (ip), vehicle: Klucel (hydroxypropylcellulose) (HPC) 95 % of control | dose: 100.0 mg/kg/injection, schedule: Q01DX009 (ip), vehicle: Klucel (hydroxypropylcellulose) (HPC) 95 % of control

Nc1cc(C(F)(F)F)ccc1S
inactive: dose: 3.0 mg/kg/injection, schedule: Q01DX009 (ip), vehicle: DMSO 94 % of control | dose: 6.0 mg/kg/injection, schedule: Q01DX009 (ip), vehicle: DMSO 103 % of control | dose: 12.5 mg/kg/injection, schedule: Q01DX009 (ip), vehicle: DMSO 90 % of control

O=C1Nc2ccccc2C1NC(=S)Nc1ccc(Cl)cc1 (configuration not stated)
inactive: dose: 100.0 mg/kg/injection, schedule: Q01DX001 (ip), vehicle: saline with Tween-80 87 % of control | dose: 200.0 mg/kg/injection, schedule: Q01DX001 (ip), vehicle: saline with Tween-80 86 % of control

CC[CH2][Sn](=[O])[c]1ccccc1
inactive: dose: 12.5 mg/kg/injection, schedule: Q01DX009 (ip), vehicle: saline 99 % of control | [4] 105 % of control | [1] 98 % of control and 123 % of control | [3] 96 % of control

COc1ccc([N+](=O)[O-])c(OC(C)=O)c1OC
inactive: dose: 12.5 mg/kg/injection, schedule: Q01DX009 (ip), vehicle: other 104 % of control | dose: 50.0 mg/kg/injection, schedule: Q01DX009 (ip), vehicle: other 93 % of control | dose: 100.0 mg/kg/injection, schedule: Q01DX009 (ip), vehicle: other 89 % of control | dose: 200.0 mg/kg/injection, schedule: Q01DX009 (ip), vehicle: other 89 % of control
